Results reported in patent US20030225007A1, “Sulfonamide derivatives of 3-substituted imidazol[1,2-d]-1,2,4-thiadiazoles and 3-substituted-[1,2,4] thiadiazolo[4,5-a] benzimidazole as inhibitors of fibrin cross-linking and transglutaminases” (Apotex Inc., priority 2002, published 2003).

Tests used:
Guinea pig liver TGase = target: T1, Guinea pig liver TGase (Cavia cutleri, UniProt P08587); assay: Enzyme selectivity: inactivation of tissue type transglutaminase; assay type: biochemical; conditions: TGAse IC50, Guinea pig liver TGase; 5-min incubation at 37° C. in the absence of substrate
T1 construct: Guinea pig liver TGase; from tissue; host or cells: guinea pig liver
T1 sequence (P08587 2-690): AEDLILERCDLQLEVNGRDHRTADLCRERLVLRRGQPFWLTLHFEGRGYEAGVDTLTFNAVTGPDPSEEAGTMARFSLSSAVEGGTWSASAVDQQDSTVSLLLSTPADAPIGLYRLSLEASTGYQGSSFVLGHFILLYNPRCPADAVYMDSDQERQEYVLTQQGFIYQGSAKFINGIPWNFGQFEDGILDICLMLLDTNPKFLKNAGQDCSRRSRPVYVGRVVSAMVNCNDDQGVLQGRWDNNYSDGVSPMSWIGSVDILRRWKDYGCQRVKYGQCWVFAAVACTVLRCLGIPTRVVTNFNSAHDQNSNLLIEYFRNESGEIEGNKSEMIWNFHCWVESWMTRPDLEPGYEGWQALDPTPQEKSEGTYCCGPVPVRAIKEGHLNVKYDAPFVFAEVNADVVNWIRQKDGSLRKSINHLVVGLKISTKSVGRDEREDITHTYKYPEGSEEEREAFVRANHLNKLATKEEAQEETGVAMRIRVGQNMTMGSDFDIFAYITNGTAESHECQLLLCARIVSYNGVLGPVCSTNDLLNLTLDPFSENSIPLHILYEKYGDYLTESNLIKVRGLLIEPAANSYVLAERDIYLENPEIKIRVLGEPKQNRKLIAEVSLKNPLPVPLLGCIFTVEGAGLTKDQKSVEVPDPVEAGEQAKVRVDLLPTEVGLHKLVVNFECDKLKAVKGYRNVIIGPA
Protocol: Enzyme selectivity . Inactivation of tissue type transglutaminase: Inhibitor solution in DMSO (5 μL) was added to 250 mM Tris-Cl pH 7.5 containing 40 mM CaCl2 and 1 mM EDTA in a final volume of 42 μL. Guinea pig liver TGase (3 μL, 2.5 mg/mL in 5 mM Tris-HCl pH 7.5, 2 mM EDTA) was added and the mixture was incubated for 5 min. at 37° C.
An assay mixture composed of 50 mM Tris-Cl, pH 8.0, 10 mM CaCl2, 1 mM EDTA, 0.1% poly(ethylene glycol) (app. MW=1000) and 20 μM monodansylcadaverine was prepared in a spectrofluorimetric cell in a final volume of 2952 μL. Dimethylcasein (8 μL, 1% in 50 mM sodium phosphate pH 7.5) was added and the mixture was incubated at 37° C. for a few minutes. To assay the residual enzyme activity, 40 μL of the solution containing the enzyme and the inhibitor was transferred to the assay mixture. The covalent incorporation of monodansylcadaverine into casein was monitored by an increase in fluorescence at λexc=360 nm and λem=500 nm, as previously described ((Curtis, C. G.; Lorand, L. Methods Enzymol. 1976, 45, 177-191). To determine uninhibited enzyme activity, DMSO was used in place of inhibitor solution in the above assay. IC50 values were determined by plotting the percent of remaining enzyme activity against logarithm of inhibitor concentration. IC50 is defined here as inhibitor concentration resulting in 50% enzyme inactivation after 5-min incubation of the enzyme with the inhibitor in the absence of the substrate. Second order rate constants for inactivation were determined using method described by Kitz and Wilson (Kitz, R.; Wilson, I. J.Biol.Chem. 1962,237, 3245).

[1] = target: T2, endogenous Factor XIII in plasma (Plasma FXIIIa) (Homo sapiens, UniProt P00488); assay: Inactivation of endogenous Factor XIII in plasma; assay type: biochemical; conditions: citrated plasma, thrombin-activated, 5 min at 37° C.
T2 construct: from tissue; host or cells: citrated plasma (desensitized by heating)
T2 sequence (P00488 39-732 limits assumed): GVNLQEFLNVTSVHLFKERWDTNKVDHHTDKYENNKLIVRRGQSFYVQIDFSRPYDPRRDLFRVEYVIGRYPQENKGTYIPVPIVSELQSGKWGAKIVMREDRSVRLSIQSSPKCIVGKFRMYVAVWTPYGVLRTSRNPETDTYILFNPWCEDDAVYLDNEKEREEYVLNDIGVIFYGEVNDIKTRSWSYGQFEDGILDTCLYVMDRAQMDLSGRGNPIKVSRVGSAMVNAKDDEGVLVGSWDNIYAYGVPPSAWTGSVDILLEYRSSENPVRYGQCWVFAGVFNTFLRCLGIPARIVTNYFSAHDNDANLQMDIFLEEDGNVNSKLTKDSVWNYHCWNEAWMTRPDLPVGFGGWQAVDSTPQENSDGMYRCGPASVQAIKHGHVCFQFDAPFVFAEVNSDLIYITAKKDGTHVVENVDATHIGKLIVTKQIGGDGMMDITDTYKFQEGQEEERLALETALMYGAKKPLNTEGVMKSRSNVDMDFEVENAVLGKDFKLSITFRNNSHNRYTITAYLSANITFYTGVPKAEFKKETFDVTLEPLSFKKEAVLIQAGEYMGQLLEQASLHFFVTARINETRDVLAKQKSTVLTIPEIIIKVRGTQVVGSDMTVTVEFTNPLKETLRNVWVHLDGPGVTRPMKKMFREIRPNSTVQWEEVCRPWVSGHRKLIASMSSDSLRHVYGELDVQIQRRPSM
Protocol: Citrated plasma (0.235 mL) was “desensitized” by heating with ethylene glycol monomethyl ether (0.235 mL, 20% solution in water) in a glass test tube at 56° C. for 4 min., as described by Lorand (Lorand, L.; Lockridge, O. M.; Campbell, L. K.; Myhrman, R.; Bruner-Lorand, J. Anal.Biochem. 1971, 44, 221-231). After cooling to 37° C., calcium chloride (20 μL, 0.4 M in 50 mM Tris-HCl pH 7.5) and inhibitor solution in 50% glycerol (59 μL) were added. Bovine thrombin (30 NIH units in 118 μL of 50 mM Tris-HCl pH 7.5 containing 20 mM CaCl2) was added and the mixture was incubated at 37° C. for 5 min.
An assay mixture composed of 0.1 M sodium borate, pH 9.0, 0.3% ethylene glycol monomethyl ether, 32 μM monodansylcadaverine, 10 mM CaCl2 and 0.08% dimethyl casein in a final volume of 1.263 mL was prepared in a spectrofluorometric cell and incubated at 37° C. for a few minutes. To assay the residual enzyme activity, 567 μL of the plasma solution was transferred to the assay mixture. The covalent incorporation of monodansylcadaverine into casein was monitored by an increase in fluorescence at λex=360 nm and λem=500 nm, as previously described (Curtis, C. G.; Lorand, L. Methods Enzymol. 1976, 45, 177-191). To determine uninhibited enzyme activity, inhibitor solution was replaced by 50% glycerol. IC50 values (inhibitor concentration resulting in 50% enzyme inactivation) were determined by plotting the percent of remaining enzyme activity against logarithm of inhibitor concentration.

| Structure (SMILES) | IC50 (Guinea pig liver TGase) | IC50 [1] |
| --- | --- | --- |
| O=S(=O)(NCCCCCCNc1nsc2nccn12)c1cccc2ccccc12 [1-naphthyl, N-[6-(imidazo[1,2-d][1,2,4]thiadiazol-3-ylamino)hexyl]naphthalene-1-sulfonamide] | 23 µM | 8.4 µM |
| O=S(=O)(Cc1ccccc1)NCCCCCCNc1nsc2nccn12 [2 / CH2Ph, N-[6-(imidazo[1,2-d][1,2,4]thiadiazol-3-ylamino)hexyl]-1-phenylmethanesulfonamide] | 27 µM | 19 µM |
| O=S(=O)(NCCCCCCNc1nsc2nccn12)c1ccc(F)cc1F [2,4-diF-Ph, 2,4-difluoro-N-[6-(imidazo[1,2-d][1,2,4]thiadiazol-3-ylamino)hexyl]benzenesulfonamide] | 23 µM | 6.1 µM |
| O=S(=O)(NCCCCCCNc1nsc2nccn12)c1ccc(OC(F)(F)F)cc1 [4-OCF3-Ph, N-[6-(imidazo[1,2-d][1,2,4]thiadiazol-3-ylamino)hexyl]-4-trifluoromethoxybenzenesulfonamide] | 31 µM | 31 µM |
| O=C(O)CN(CCCCCCNS(=O)(=O)c1ccccc1[N+](=O)[O-])c1nsc2nccn12 [H / CH2CO2H / 2-NO2-Ph, N-imidazo[1,2-d][1,2,4]thiadiazol-3-yl-N-(6-{[(2-nitrophenyl)sulfonyl]amino}hexyl)glycine] | 17 µM |  |
